Where two headings read alike, the source gives them in different places.
How the values were obtained:
B16 (malignant melanoma) = assay: In vitro proliferation assay, B16; assay type: cell-based, murine
Protocol: (§1) All cell lines were grown and propagated in RPMI medium at 37° C. in 5% CO2. Cultured cells were trypsinized and plated in triplicate at 10,000 cells/well in Falcon 24 well tissue culture plates. […] When control wells neared confluence, cell number was determined for each well as an average of two readings on a ZM Coulter Counter Results are expressed as the average cell number for each drug treatment group divided by the average cell number for the drug free control group (designated as % OF CONTROL) vs. the concentration of drug or analog.

[1] = test system: RENCA (renal cell carcinoma); assay: In vitro proliferation assay, RENCA; assay type: cell-based, murine
Protocol: as §1

[2] = test system: EMT6 (breast cell carcinoma); assay: In vitro proliferation assay, EMT6; assay type: cell-based, murine
Protocol: as §1

CT26 (colon carcinoma) = assay: In vitro proliferation assay, CT26; assay type: cell-based, murine; details: at 1000 nM against CT26 (p<0.01, data not shown)
Protocol: as §1

B16 melanoma cells = assay: Exposure time dependence study, B16; assay type: cell-based, murine; details: 10 μM; exposure 1, 2, 10, 24, 96 hours; counted at 96 hours
Protocol: In a series of exposure time dependence studies, B16 melanoma cells were trypsinized, suspended, and plated as before. […] Then at 1, 2, 10, 24, and 96 hours, the drug containing media was removed and replaced with fresh media containing only solvent. […] At the 96 hour time point, all groups were trypsinized and cell number was determined as before.

[3] = Calcemic activity, daily intraperitoneal injections in mice; assay type: in vivo, C57/B16 mice; details: for weight loss: 7 days; for blood ionized calcium: day 7
Protocol: Twenty-seven C57/B16 mice (n=3 per group), received daily intraperitoneal injections solution containing one of the three drugs at on of the following doses: […] (corresponding to 0.02, 0.2, or 2 mg/day respectively). Nine animals received daily intraperitoneal injections of solvent only to serve as control. Animal weights were monitored daily at the time of injection. On day 7, all animals were sacrificed and blood was collected via cardiac puncture and quantitatively analyzed for ionized calcium content at the Critical Care Lab at Johns Hopkins Hospital.

[4] = Hypercalcemic toxicity of wafers, intraflank vs intracranial; assay type: in vivo,  mice; details: 5 mg pCPP:SA wafer loaded 0.1%; for weight loss: 7 days; for blood ionized calcium levels: day 7
Excerpt: Animal weights were monitored daily and blood was collected for quantitative ionized calcium analysis via cardiac puncture on day 7 post-implantation.

[5] = cited from earlier work

Q: For `C=C1/C(=C\C=C2/CCCC3(C)[C@@H]([C@H](C)CCCC(C)(C)O)CC[C@@H]23)C[C@@H](O)CC1O` (some centres unmarked) [1,25 D3, 1,25-Dihydroxyvitamin D3], which EC50 (B16 (malignant melanoma); Mus musculus) is on record?
A: 0.015 µM

Q: And the antiproliferative activity (B16 (malignant melanoma); at 10 nM against B16 (p<0.03))?
A: significant antiproliferative activity

Q: And the EC50 ([1]; Mus musculus, Renca)?
A: 0.153 µM

Q: What about the antiproliferative activity ([1]; at 10 nM against RENCA (p<0.03)) of the same compound?
A: significant antiproliferative activity

Q: What about the EC50 ([2]; Mus musculus, EMT6) of the same compound?
A: 0.16 µM

Q: What about the antiproliferative activity ([2]; at 100 nM against EMT6 (p<0.01)) of the same compound?
A: significant antiproliferative activity

Q: And the antiproliferative activity (CT26 (colon carcinoma))?
A: significant antiproliferative activity

Q: And the “exposure time dependence of antiproliferative activity” value (B16 melanoma cells)?
A: exposure time dependent

Q: What about the weight loss ([3]; 1 mg/kg/day i.p.) of the same compound?
A: substantial weight loss

Q: And the blood ionized calcium ([3]; 1 mg/kg/day i.p.)?
A: dramatic rises in blood ionized calcium levels

Q: What about the weight loss ([3]; 10 mg/kg/day i.p.) of the same compound?
A: substantial weight loss

Q: And the blood ionized calcium ([3]; 10 mg/kg/day i.p.)?
A: dramatic rises in blood ionized calcium levels

Q: And the “condition of the animals” value ([3]; 100 mg/kg/day i.p.)?
A: severely compromised

Q: What about the weight loss ([4]; intracranial) of the same compound?
A: substantial weight loss

Q: What about the “blood ionized calcium levels” value ([4]; intracranial) of the same compound?
A: dramatic rises in blood ionized calcium levels

Q: What about the weight loss ([4]; intraflank) of the same compound?
A: substantial weight loss

Q: And the “blood ionized calcium levels” value ([4]; intraflank)?
A: dramatic rises in blood ionized calcium levels

Q: What about the serum calcium ([5]; 60 ng/day i.c.v., after 6 days) of the same compound?
A: rise in serum calcium

Q: And the weight loss ([5]; 120 ng/day i.c.v.)?
A: weight loss was observed

Q: And the “condition of the animals” value ([5]; 240 ng/day i.c.v., by day 6)?
A: severely compromised
